How the values were obtained:
[1] = biological target: T1, cholesterol esterase (CE) (Homo sapiens, UniProt P19835); experiment: Kinetic inhibition studies of CE with substrate p-nitrophenylbutyrate, Dixon plots; details: for inhibition of CE (in words): kinetic inhibition studies
T1 sequence (P19835 21-753): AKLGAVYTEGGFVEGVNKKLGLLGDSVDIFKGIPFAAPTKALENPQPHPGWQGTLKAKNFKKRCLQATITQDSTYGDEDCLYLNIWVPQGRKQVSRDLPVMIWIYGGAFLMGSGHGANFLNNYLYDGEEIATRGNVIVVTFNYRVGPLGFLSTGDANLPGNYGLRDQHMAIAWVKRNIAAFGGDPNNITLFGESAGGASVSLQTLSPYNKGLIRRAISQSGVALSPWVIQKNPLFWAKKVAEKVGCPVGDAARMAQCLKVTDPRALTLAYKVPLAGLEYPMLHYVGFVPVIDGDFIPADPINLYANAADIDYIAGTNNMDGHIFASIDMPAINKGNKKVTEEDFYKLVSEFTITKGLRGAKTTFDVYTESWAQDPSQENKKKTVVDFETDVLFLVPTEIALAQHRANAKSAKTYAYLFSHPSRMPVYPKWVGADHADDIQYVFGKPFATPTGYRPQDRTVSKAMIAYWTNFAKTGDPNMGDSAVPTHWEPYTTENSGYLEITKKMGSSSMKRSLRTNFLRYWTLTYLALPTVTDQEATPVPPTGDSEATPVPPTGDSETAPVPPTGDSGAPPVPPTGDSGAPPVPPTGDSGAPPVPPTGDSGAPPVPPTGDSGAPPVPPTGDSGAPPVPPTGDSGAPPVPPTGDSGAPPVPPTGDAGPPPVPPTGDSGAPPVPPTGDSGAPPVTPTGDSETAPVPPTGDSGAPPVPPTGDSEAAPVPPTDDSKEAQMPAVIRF

chymotrypsin = chymotrypsin (Bos taurus, UniProt P00766); experiment: Inhibition of chymotrypsin; format: biochemical
Description: Thus, the compounds of the present invention which have a saturated ring as part of the 3-substituent provide tremendous selectivity when compared to compounds where the 3-substituent includes an aromatic ring.

[2] = rats, single intragastric dose simultaneous with feeding of cholesterol ester; cited from earlier work
lumenal CE = biological target: T2, lumenal CE (Rattus norvegicus, UniProt P07882); details: rats, single intragastric dose simultaneous with feeding of cholesterol ester; cited from earlier work
T2 construct: from tissue; host or cells: rat intestinal lumen (in vivo)
T2 sequence (P07882 21-612): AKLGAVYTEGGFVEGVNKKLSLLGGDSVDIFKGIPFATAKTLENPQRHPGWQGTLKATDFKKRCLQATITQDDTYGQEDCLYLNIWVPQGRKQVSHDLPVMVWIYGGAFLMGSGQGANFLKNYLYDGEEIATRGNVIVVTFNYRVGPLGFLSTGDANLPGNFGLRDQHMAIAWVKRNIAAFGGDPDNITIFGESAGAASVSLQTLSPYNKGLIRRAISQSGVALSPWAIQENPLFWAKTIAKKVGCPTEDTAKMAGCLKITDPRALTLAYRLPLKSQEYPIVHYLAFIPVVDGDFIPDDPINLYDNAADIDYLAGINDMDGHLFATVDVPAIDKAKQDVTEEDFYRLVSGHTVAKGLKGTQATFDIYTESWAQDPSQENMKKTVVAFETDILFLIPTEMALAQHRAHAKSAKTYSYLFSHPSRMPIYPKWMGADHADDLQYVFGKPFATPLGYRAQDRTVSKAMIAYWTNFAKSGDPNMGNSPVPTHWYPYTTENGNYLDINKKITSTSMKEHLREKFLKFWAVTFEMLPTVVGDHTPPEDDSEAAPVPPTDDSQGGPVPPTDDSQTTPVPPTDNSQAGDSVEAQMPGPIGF

CE = biological target: T3, CE (Homo sapiens, UniProt P19835); details: in vitro; cited from earlier work
T3 sequence (P19835 21-753): T1 sequence (P19835 21-753)

SMILES: O=c1oc(Cl)ccc1CCC1CCCCC1 [Example 3]
- Ki ([1]; calculated Ki, apparent Ki from Dixon plots, equals one half of the concentration of CE used in the assay): 0.03 µM
- Ki (chymotrypsin): 50 µM

SMILES: O=c1oc(Cl)ccc1CCCC1CCCCC1 [Example 4]
- inhibition of CE (in words) [1]: potent inhibitors of CE

SMILES: O=c1oc(Cl)ccc1CC1CCCCC1 [Example 2]
- inhibition of CE (in words) [1]: potent inhibitors of CE

SMILES: O=c1oc(Cl)ccc1Cc1ccccc1 [3-benzyl-6-chloropyrone]
- drop in cholesterol absorption [2]: 60%
- inactivation of lumenal CE activity (lumenal CE): 63%
- half life of CE inactivation (CE): 1.67 min
